In patent publication US8759334B2, “Compounds useful for the treatment of metabolic and inflammatory diseases” (Galapagos NV, priority 2011, dated 2014):

Biological target: T1, GPR43 (Homo sapiens, UniProt O15552)
T1 construct: expressed in transfected cells
T1 sequence (O15552 1-330): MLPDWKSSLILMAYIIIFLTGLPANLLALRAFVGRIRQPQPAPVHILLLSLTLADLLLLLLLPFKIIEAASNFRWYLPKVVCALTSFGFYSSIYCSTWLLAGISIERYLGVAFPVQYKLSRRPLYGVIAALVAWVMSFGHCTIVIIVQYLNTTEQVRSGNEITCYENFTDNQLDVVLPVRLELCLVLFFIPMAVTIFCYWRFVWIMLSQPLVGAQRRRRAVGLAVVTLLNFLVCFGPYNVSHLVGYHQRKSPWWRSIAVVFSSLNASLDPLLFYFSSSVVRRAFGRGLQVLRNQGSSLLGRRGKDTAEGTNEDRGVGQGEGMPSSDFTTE
Assay: Calcium mobilization assay with probenecid
Format: cell-based
Conditions: GPR43 stably expressing cells; triggered with sodium acetate at EC80; 2.5 mM probenecid; read-out: GPR43 assay with probenicid IC50
Outline: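 […] being added at rising concentrations to a GPR43 stable line. Before this, cells were dye-loaded (Calcium 4 with 2.5 mM probenecid) for 2 h at 37 °C after overnight plating.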

| IC50 [nM] | Structure (SMILES) |
| --- | --- |
| > 1000 | CC1(C(=O)NCc2ccc(Cl)cc2)CCN1C(=O)Oc1ccc(Cl)cc1 (stereo not drawn) [Compound 2, 2-(4-Chloro-benzylcarbamoyl)-2-methyl-azetidine-1-carboxylic acid 4-chloro-phenyl ester] |
| > 1000 | CC1(C(=O)Nc2ccc(Cl)cc2)CCN1C(=O)Cc1ccc(Cl)cc1Cl (stereo not drawn) [Compound 4, 1-[2-(2,4-Dichloro-phenyl)-acetyl]-2-methyl-azetidine-2-carboxylic acid (4-chloro-phenyl)-amide] |

Second part, the compound before the results:

| Structure (SMILES) | IC50 [nM] |
| --- | --- |
| Cc1cc(C)cc(CC(=O)N2CCC2(C)C(=O)N(C)Cc2cccc(Cl)c2)c1 (stereo not drawn) [Compound 5, 1-[2-(3,5-Dimethyl-phenyl)-acetyl]-2-methyl-azetidine-2-carboxylic acid (3-chloro-benzyl)-methyl-amide] | > 1000 |
| Cc1ccc(CN(C)C(=O)C2(C)CCN2C(=O)Cc2cc(C)cc(C)c2)cc1 (stereo not drawn) [Compound 6, 1-[2-(3,5-Dimethyl-phenyl)-acetyl]-2-methyl-azetidine-2-carboxylic acid methyl-(4-methyl-benzyl)-amide] | > 1000 |
| Cc1cc(C)cc(CC(=O)N2CCC2(C)C(=O)N(C)Cc2ccc(C(F)(F)F)cc2)c1 (stereo not drawn) [Compound 7, 1-[2-(3,5-Dimethyl-phenyl)-acetyl]-2-methyl-azetidine-2-carboxylic acid methyl-(4-trifluoromethyl-benzyl)-amide] | 101 to 500 |
| CC[C@]1(C(=O)N(CCCS(N)(=O)=O)[C@@H](C)c2ccc(Cl)cc2)CCN1C(=O)c1csc2ccccc12 [Compound 244, (R)-1-(benzo[b]thiophene-3-carbonyl)-N-((S)-1-(4-chlorophenyl)ethyl)-2-ethyl-N-(3-sulfamoylpropyl)azetidine-2-carboxamide] | > 1000 |
| CC[C@@]1(C(=O)N(CCCS(N)(=O)=O)[C@@H](C)c2ccc(Cl)cc2)CCN1C(=O)c1csc2ccccc12 [Compound 245, (S)-1-(benzo[b]thiophene-3-carbonyl)-N-((S)-1-(4-chlorophenyl)ethyl)-2-ethyl-N-(3-sulfamoylpropyl)azetidine-2-carboxamide] | 101 to 500 |
| CCC1(C(=O)N(CCCS(N)(=O)=O)c2ccc(Cl)cc2)CCN1C(=O)c1csc2ccccc12 (stereo not drawn) [Compound 246, 1-(benzo[b]thiophene-3-carbonyl)-N-(4-chlorophenyl)-2-ethyl-N-(3-sulfamoylpropyl)azetidine-2-carboxamide] | 101 to 500 |
| COc1ccccc1CC1(C(=O)N(CCCC(=O)O)Cc2cccc(Cl)c2)CCN1C(=O)c1csc2ccccc12 (stereo not drawn) [Compound 247, 4-(1-(benzo[b]thiophene-3-carbonyl)-N-(3-chlorobenzyl)-2-(2-methoxybenzyl)azetidine-2-carboxamido)butanoic acid] | > 1000 |
| CC1(C(=O)N(CCCC(=O)O)c2cccc(Cl)c2)CCN1C(=O)c1csc2ccccc12 (stereo not drawn) [Compound 248, 4-(1-(benzo[b]thiophene-3-carbonyl)-N-(3-chlorophenyl)-2-methylazetidine-2-carboxamido)butanoic acid] | 101 to 500 |
| CC1(C(=O)N(CCCC(=O)O)c2ccc(Cl)nc2)CCN1C(=O)c1csc2ccccc12 (stereo not drawn) [Compound 249, 4-(1-(benzo[b]thiophene-3-carbonyl)-N-(6-chloropyridin-3-yl)-2-methylazetidine-2-carboxamido)butanoic acid] | > 1000 |
| CC1(C(=O)N(CCCC(=O)O)c2ccc(Cl)cn2)CCN1C(=O)c1csc2ccccc12 (stereo not drawn) [Compound 250, 4-(1-(benzo[b]thiophene-3-carbonyl)-N-(5-chloropyridin-2-yl)-2-methylazetidine-2-carboxamido)butanoic acid] | 501 to 1000 |
| CC1(C(=O)N(CCCC(=O)O)c2cccc(C(F)(F)F)c2)CCN1C(=O)c1csc2ccccc12 (stereo not drawn) [Compound 251, 4-(1-(benzo[b]thiophene-3-carbonyl)-2-methyl-N-(3-(trifluoromethyl)phenyl)azetidine-2-carboxamido)butanoic acid] | 101 to 500 |
| CC1(C(=O)N(CCCC(=O)O)c2cc(Cl)ccn2)CCN1C(=O)c1csc2ccccc12 (stereo not drawn) [Compound 252, 4-(1-(benzo[b]thiophene-3-carbonyl)-N-(4-chloropyridin-2-yl)-2-methylazetidine-2-carboxamido)butanoic acid] | 501 to 1000 |
| CC1(C(=O)N(CCCC(=O)O)c2ccccn2)CCN1C(=O)c1csc2ccccc12 (stereo not drawn) [Compound 253, 4-(1-(benzo[b]thiophene-3-carbonyl)-2-methyl-N-(pyridin-2-yl)azetidine-2-carboxamido)butanoic acid] | > 1000 |

Biological target: T1, GPR43
Assay: Calcium mobilization assay without probenecid
Format: cell-based
Conditions: GPR43 stably expressing cells, triggered with sodium acetate at EC80, read-out: GPR43 assay without probenicid IC50
Experimental: The following assay can be used for determination of GPR43 activation. The assay measures intracellular calcium release induced by activation of GPR43. On day 1, GPR43 stably expressing cells were detached with mild trypsinization (Trypsin, 0.25% with EDTA 4Na, 5× diluted in PBS) centrifuged at 1000 rpm for 5 min and resuspended at 6.000 cells/25 μL medium (DMEM supplemented with 10% FBS, 10 μg/mL puromycin and 1% Pen/Strep). The cells were distributed in poly-D-lysine coated 384 well plates (black with clear bottom, 25 μL/well) and incubated overnight at 37° C. 10% CO2. On day 2, 25 μL of a fluorescent Ca^2+ indicator (Calcium 4 assay; Molecular Devices) was added on top of the cells and incubated for 2 h at 37° C. Subsequently, compounds at increasing concentration (10 μL/well) were added to the plate and incubated for 15 min at 37° C. Finally the cells were triggered with sodium acetate at EC80 concentration (concentration which gives 80% of the activity of the GPR43) and the Ca-flux was measured simultaneously to the trigger injection on a fluorescence plate reader (FlexStation3), this measures the antagonist activity of the compounds. To measure agonist activity of the compounds, compound was added to the well and the Ca-flux was measured simultaneously to the injection of compound.

| IC50 [nM] | Structure (SMILES) |
| --- | --- |
| 101 to 500 | CC1(C(=O)NCc2ccc(Cl)cc2)CCN1C(=O)Cc1ccc(Cl)cc1Cl (stereo not drawn) [Compound 1, 1-[2-(2,4-Dichloro-phenyl)-acetyl]-2-methyl-azetidine-2-carboxylic acid 4-chloro-benzylamide] |
| > 1000 | CC1(C(=O)NCc2ccc(Cl)cc2)CCN1C(=O)Oc1ccc(Cl)cc1 (stereo not drawn) [Compound 2, 2-(4-Chloro-benzylcarbamoyl)-2-methyl-azetidine-1-carboxylic acid 4-chloro-phenyl ester] |
| > 1000 | Cc1cc(C)cc(CC(=O)N2CCC2(C)C(=O)N(C)Cc2ccc(Cl)cc2)c1 (stereo not drawn) [Compound 3, 1-[2-(3,5-Dimethyl-phenyl)-acetyl]-2-methyl-azetidine-2-carboxylic acid (4-chloro-benzyl)-methyl-amide] |
| > 1000 | CC1(C(=O)Nc2ccc(Cl)cc2)CCN1C(=O)Cc1ccc(Cl)cc1Cl (stereo not drawn) [Compound 4, 1-[2-(2,4-Dichloro-phenyl)-acetyl]-2-methyl-azetidine-2-carboxylic acid (4-chloro-phenyl)-amide] |
| 501 to 1000 | CN(Cc1ccc(Cl)cc1)C(=O)C1(C)CCN1C(=O)Cc1cccc(I)c1 (stereo not drawn) [Compound 8, 1-[2-(3-iodo-phenyl)-acetyl]-2-methyl-azetidine-2-carboxylic acid (4-chloro-benzyl)-methyl-amide] |
| 101 to 500 | CN(Cc1ccc(Cl)cc1)C(=O)C1(C)CCN1C(=O)Cc1csc2ccccc12 (stereo not drawn) [Compound 13, 1-(2-Benzo[b]thiophen-3-yl-acetyl)-2-methyl-azetidine-2-carboxylic acid (4-chloro-benzyl)-methyl-amide] |
| 501 to 1000 | CN(Cc1ccc(Cl)cc1)C(=O)C1(C)CCN1C(=O)Cc1ccc2ccccc2c1 (stereo not drawn) [Compound 14, 2-Methyl-1-(2-naphthalen-2-yl-acetyl)-azetidine-2-carboxylic acid (4-chloro-benzyl)-methyl-amide] |
| 101 to 500 | Cc1cc(C)cc(CC(=O)N2CCC2(C)C(=O)N(CCO)Cc2ccc(Cl)cc2)c1 (stereo not drawn) [Compound 47, 1-[2-(3,5-Dimethyl-phenyl)-acetyl]-2-methyl-azetidine-2-carboxylic acid (4-chloro-benzyl)-(2-hydroxy-ethyl)-amide] |
| 501 to 1000 | COC(=O)CCN(Cc1ccc(Cl)cc1)C(=O)C1(C)CCN1C(=O)Cc1cc(C)cc(C)c1 (stereo not drawn) [Compound 62, 3-((4-Chloro-benzyl)-{1-[2-(3,5-dimethyl-phenyl)-acetyl]-2-methyl-azetidine-2-carbonyl}-amino)-propionic acid methyl ester] |
| 101 to 500 | Cc1cc(C)cc(CC(=O)N2CCC2(C)C(=O)N(CCCC(=O)O)Cc2ccc(Cl)cc2)c1 (stereo not drawn) [Compound 64, 4-((4-Chloro-benzyl)-{1-[2-(3,5-dimethyl-phenyl)-acetyl]-2-methyl-azetidine-2-carbonyl}-amino)-butyric acid] |
| > 1000 | Cc1cc(C)cc(CC(=O)N2CCC2(C)C(=O)N(CCC(=O)O)Cc2ccc(Cl)cc2)c1 (stereo not drawn) [Compound 65, 3-((4-chloro-benzyl)-{1-[2-(3,5-dimethyl-phenyl)-acetyl]-2-methyl-azetidine-2-carbonyl}-amino)-propionic acid] |
| 101 to 500 | CC1(C(=O)N(CCCO)Cc2ccc(Cl)cc2)CCN1C(=O)Cc1csc2ccccc12 (stereo not drawn) [Compound 70, 1-(2-Benzo[b]thiophen-3-yl-acetyl)-2-methyl-azetidine-2-carboxylic acid (4-chloro-benzyl)-(3-hydroxy-propyl)-amide] |
| > 1000 | Cc1cc(C)cc(CC(=O)N2CC[C@@]2(C)C(=O)N(CC(=O)O)Cc2ccc(Cl)cc2)c1 [Compound 81a, ((4-Chloro-benzyl)-{(S)-1-[2-(3,5-dimethyl-phenyl)-acetyl]-2-methyl-azetidine-2-carbonyl}-amino)-acetic acid] |
| > 1000 | CN(Cc1ccc(Cl)cc1)C(=O)C1(C)CCN1C(=O)Cc1csc2ccc(Cl)cc12 (stereo not drawn) [Compound 92, 1-[2-(5-Chloro-benzo[b]thiophen-3-yl)-acetyl]-2-methyl-azetidine-2-carboxylic acid (4-chloro-benzyl)-methyl-amide] |
| > 1000 | Cc1ccc2scc(CC(=O)N3CCC3(C)C(=O)N(C)Cc3ccc(Cl)cc3)c2c1 (stereo not drawn) [Compound 93, 1-[2-(5-Methyl-benzo[b]thiophen-3-yl)-acetyl]-2-methyl-azetidine-2-carboxylic acid (4-chloro-benzyl)-methyl-amide] |

Further lines, the compound ahead of its results:

| Structure (SMILES) | IC50 [nM] |
| --- | --- |
| Cc1cc(C)cc(CC(=O)N2CCC2(C)C(=O)N(C)Cc2cccc(Cl)c2)c1 (stereo not drawn) [Compound 5, 1-[2-(3,5-Dimethyl-phenyl)-acetyl]-2-methyl-azetidine-2-carboxylic acid (3-chloro-benzyl)-methyl-amide] | > 1000 |
| Cc1ccc(CN(C)C(=O)C2(C)CCN2C(=O)Cc2cc(C)cc(C)c2)cc1 (stereo not drawn) [Compound 6, 1-[2-(3,5-Dimethyl-phenyl)-acetyl]-2-methyl-azetidine-2-carboxylic acid methyl-(4-methyl-benzyl)-amide] | 501 to 1000 |
| Cc1cc(C)cc(CC(=O)N2CCC2(C)C(=O)N(C)Cc2ccc(C(F)(F)F)cc2)c1 (stereo not drawn) [Compound 7, 1-[2-(3,5-Dimethyl-phenyl)-acetyl]-2-methyl-azetidine-2-carboxylic acid methyl-(4-trifluoromethyl-benzyl)-amide] | 101 to 500 |
